According to PubChem BioAssay AID248 (DTP/NCI, 2004):
Several values for one entry are separate records, joined by “and”; a condition that tells them apart may be missing. Equal entries are not always repeated. Inconclusive results and toxic doses are left out.

System: L1210 leukemia ip in BDF1 mice, survival T/C
Assay: NCI In Vivo Anticancer Drug Screen. Data for tumor model L1210 Leukemia (intraperitoneal) in B6D2F1 (BDF1) mice
Settings: endpoint: mean survival time, higher = longer survival
Outline: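 Each compound was tested against a transplantable tumor grown in mice. The endpoint was survival, with treated animals benchmarked against vehicle controls as a simple ratio.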

[1] = dose: 50.0 mg/kg/injection, schedule: Q01DX001 (ip), vehicle: carboxymethylcellulose (CMC)
[2] = dose: 100.0 mg/kg/injection, schedule: Q01DX001 (ip), vehicle: carboxymethylcellulose (CMC)
[3] = dose: 200.0 mg/kg/injection, schedule: Q01DX001 (ip), vehicle: carboxymethylcellulose (CMC)
[4] = dose: 50.0 mg/kg/injection, schedule: Q01DX009 (ip), vehicle: saline with Tween-80
[5] = dose: 100.0 mg/kg/injection, schedule: Q01DX009 (ip), vehicle: saline with Tween-80
[6] = dose: 200.0 mg/kg/injection, schedule: Q01DX009 (ip), vehicle: saline with Tween-80
[7] = dose: 400.0 mg/kg/injection, schedule: Q01DX001 (ip), vehicle: carboxymethylcellulose (CMC)
[8] = dose: 100.0 mg/kg/injection, schedule: Q04DX003 (ip), vehicle: saline
[9] = dose: 400.0 mg/kg/injection, schedule: Q04DX003 (ip), vehicle: saline
[10] = dose: 100.0 mg/kg/injection, schedule: Q01DX001 (ip), vehicle: saline
[11] = dose: 200.0 mg/kg/injection, schedule: Q01DX001 (ip), vehicle: saline
[12] = dose: 400.0 mg/kg/injection, schedule: Q01DX001 (ip), vehicle: saline
[13] = dose: 100.0 mg/kg/injection, schedule: Q04DX003 (ip), vehicle: saline with Tween-80
[14] = dose: 200.0 mg/kg/injection, schedule: Q04DX003 (ip), vehicle: saline with Tween-80
[15] = dose: 400.0 mg/kg/injection, schedule: Q04DX003 (ip), vehicle: saline with Tween-80
[16] = dose: 100.0 mg/kg/injection, schedule: Q01DX009 (ip), vehicle: Klucel (hydroxypropylcellulose) (HPC)
[17] = dose: 200.0 mg/kg/injection, schedule: Q01DX009 (ip), vehicle: Klucel (hydroxypropylcellulose) (HPC)
[18] = dose: 400.0 mg/kg/injection, schedule: Q01DX009 (ip), vehicle: Klucel (hydroxypropylcellulose) (HPC)
[19] = dose: 200.0 mg/kg/injection, schedule: Q04DX003 (ip), vehicle: saline

In the case of `CN1CCC=C(C(=O)O)C1`, the T/C [1] is reported as 101 % of control, the T/C [2] is reported as 110 % of control and the T/C [3] is reported as 104 % of control.
With `Cc1ccc2c(c1)C(c1ccccc1)=C(NC1CCCCC1)C2=O` the T/C (dose: 100.0 mg/kg/injection, schedule: Q01DX001 (ip), vehicle: Klucel (hydroxypropylcellulose) (HPC)) was 87 % of control, the T/C (dose: 200.0 mg/kg/injection, schedule: Q01DX001 (ip), vehicle: Klucel (hydroxypropylcellulose) (HPC)) was 91 % of control and the T/C (dose: 400.0 mg/kg/injection, schedule: Q01DX001 (ip), vehicle: Klucel (hydroxypropylcellulose) (HPC)) was 92 % of control.
For `O=C1OC(c2ccccc2)=C/C1=C/c1ccccc1O`, the T/C [4] was 95 % of control, the T/C [5] was 101 % of control and the T/C [6] was 96 % of control.
`C=CCNC(=S)Nc1cccc([N+](=O)[O-])c1` was tested, and the T/C [1] was 111 % of control, the T/C [2] was 94 % of control and the T/C [3] was 94 % of control. For the same compound, the T/C [7] was 100 % of control.
`BrC1CCC2C(CCC(Br)C23OCCO3)C12OCCO2` (stereo unspecified) was tested, and the T/C (dose: 100.0 mg/kg/injection, schedule: Q01DX009 (ip), vehicle: saline) was 91 % of control, the T/C [8] was 89 % of control and the T/C (dose: 200.0 mg/kg/injection, schedule: Q01DX009 (ip), vehicle: saline) was 98 % of control. The T/C (dose: 400.0 mg/kg/injection, schedule: Q01DX009 (ip), vehicle: saline) was 91 % of control and the T/C [9] was 108 % of control.
With `CC(C)C1NC(=O)C(Cc2c[nH]c3ccccc23)NC1=O` (stereo unspecified) the T/C [10] was 101 % of control, the T/C [11] was 101 % of control and the T/C [12] was 91 % of control.
`Cc1nc2c(NC(=O)C(F)(F)F)nn(C)c2nc1C` was tested, and the T/C [5] was 94 % of control, the T/C [13] was 100 % of control and the T/C [6] was 92 % of control. The T/C [14] was 100 % of control and the T/C [15] was 106 % of control.
In the case of `O=C(COCC(=O)N/N=C/C=C/c1ccccc1)N/N=C/C=C/c1ccccc1`, the T/C [16] is reported as 96 % of control, the T/C [17] is reported as 104 % of control and the T/C [18] is reported as 95 % of control.
In the case of `CCCCCCCS(=O)(=O)CCCCCCC`, the T/C (dose: 25.6 mg/kg/injection, schedule: Q04DX002 (ip), vehicle: saline with Tween-80) is reported as 95 % of control, the T/C (dose: 64.0 mg/kg/injection, schedule: Q04DX002 (ip), vehicle: saline with Tween-80) is reported as 91 % of control and the T/C [5] is reported as 94 % of control. For the same compound, the T/C [13] was 93 % of control, the T/C (dose: 160.0 mg/kg/injection, schedule: Q04DX002 (ip), vehicle: saline with Tween-80) was 91 % of control and the T/C [6] was 94 % of control. The T/C [14] was 95 % of control, the T/C (dose: 400.0 mg/kg/injection, schedule: Q01DX009 (ip), vehicle: saline with Tween-80) was 98 % of control and the T/C (dose: 400.0 mg/kg/injection, schedule: Q04DX002 (ip), vehicle: saline with Tween-80) was 95 % of control. The T/C [15] was 90 % of control.
`Cc1ccc(NC(=O)c2cc([N+](=O)[O-])cc([N+](=O)[O-])c2)cc1Cl` was tested, and the T/C [16] was 96 % of control, the T/C [17] was 100 % of control and the T/C [18] was 88 % of control.
For `CC(C)CCCC(C)C1CCC2C3CC=C4CC(OC(=O)Nc5ccc(S(=O)(=O)N(C)C)cc5)CCC4(C)C3CCC12C` (stereo unspecified), the T/C (dose: 100.0 mg/kg/injection, schedule: Q01DX001 (sc), vehicle: steriod suspending solution) was 103 % of control, the T/C (dose: 200.0 mg/kg/injection, schedule: Q01DX001 (sc), vehicle: steriod suspending solution) was 103 % of control and the T/C (dose: 400.0 mg/kg/injection, schedule: Q01DX001 (sc), vehicle: steriod suspending solution) was 103 % of control.
`O=C(Nc1ccc(C2=NCCN2)cc1)Nc1cc(C(=O)Nc2ccc(C3=NCCN3)cc2)ccc1C(=O)Nc1ccc(C2=NCCN2)cc1` was tested, and the T/C (dose: 7.5 mg/kg/injection, schedule: Q01DX Z (oral), vehicle: saline) was 107 % of control, the T/C (dose: 15.0 mg/kg/injection, schedule: Q01DX Z (ip), vehicle: saline) was 241 % of control and the T/C (dose: 15.0 mg/kg/injection, schedule: Q01DX Z (oral), vehicle: saline) was 105 % of control. The T/C (dose: 30.0 mg/kg/injection, schedule: Q01DX Z (oral), vehicle: saline) was 103 % of control, the T/C (dose: 60.0 mg/kg/injection, schedule: Q01DX Z (oral), vehicle: saline) was 102 % of control and the T/C (dose: 62.5 mg/kg/injection, schedule: Q01DX010 (oral), vehicle: saline) was 95 % of control. The T/C (dose: 75.0 mg/kg/injection, schedule: Q01DX Z (oral), vehicle: saline) was 95 % of control, the T/C (dose: 125.0 mg/kg/injection, schedule: Q01DX010 (oral), vehicle: saline) was 110 % of control and the T/C (dose: 250.0 mg/kg/injection, schedule: Q01DX010 (oral), vehicle: saline) was 108 % of control. For the same compound, the T/C (dose: 500.0 mg/kg/injection, schedule: Q01DX010 (oral), vehicle: saline) was 97 % of control.
`Cc1cccc(-c2nc(N)nc(N)n2)c1C` was tested, and the T/C [4] was 97 % of control, the T/C [5] was 101 % of control and the T/C [6] was 101 % of control.
For `CCOC(=O)C1CC2(Cl)C(Cl)=C(Cl)C1(Cl)C2(Cl)Cl` (stereo unspecified), the T/C [10] was 98 % of control, the T/C [8] was 94 % of control and the T/C [11] was 93 % of control. For the same compound, the T/C [19] was 94 % of control, the T/C [12] was 98 % of control and the T/C [9] was 93 % of control.
`O=C(Nc1ccccc1)c1ccc(N(CO)CO)cc1` was tested, and the T/C [10] was 98 % of control, the T/C [8] was 94 % of control and the T/C [11] was 101 % of control. The T/C [19] was 120 % of control, the T/C [12] was 93 % of control and the T/C [9] was 96 % of control.
For `C=CCCC1(CCC)C(=O)NC(=O)NC1=O`, the T/C (dose: 75.0 mg/kg/injection, schedule: Q01DX001 (ip), vehicle: saline) was 103 % of control, the T/C (dose: 150.0 mg/kg/injection, schedule: Q01DX001 (ip), vehicle: saline) was 113 % of control and the T/C (dose: 300.0 mg/kg/injection, schedule: Q01DX001 (ip), vehicle: saline) was 101 % of control.
For `COC1C(O)C(O)OC(CO)C1O` (stereo unspecified), the T/C (dose: 50.0 mg/kg/injection, schedule: Q04DX003 (ip), vehicle: saline) was 112 % of control, the T/C [8] was 96 % of control and the T/C [19] was 104 % of control. The T/C [9] was 96 % of control, the T/C (dose: 500.0 mg/kg/injection, schedule: Q01DX009 (ip), vehicle: saline) was 94 % of control and the T/C (dose: 1000.0 mg/kg/injection, schedule: Q01DX009 (ip), vehicle: saline) was 104 % of control.
With `Cc1cc(NS(=O)(=O)c2ccc(N=Nc3c(N)nc(N)nc3N)cc2)nc(C)n1` the T/C [2] was 103 % of control, the T/C [3] was 97 % of control and the T/C [7] was 105 % of control.
For `Cc1ccc(Nc2cc(=S)nc(N)[nH]2)cc1`, the T/C (dose: 100.0 mg/kg/injection, schedule: Q01DX Z (ip), vehicle: methylcellulose (MC)) was 93 % of control and the T/C (dose: 200.0 mg/kg/injection, schedule: Q01DX Z (ip), vehicle: methylcellulose (MC)) was 86 % of control.
For `CC(C)COC(=O)Cc1cccc2ccccc12`, the T/C (dose: 222.0 mg/kg/injection, schedule: Q01DX Z (ip), vehicle: saline) was 96 % of control, the T/C (dose: 333.0 mg/kg/injection, schedule: Q01DX Z (ip), vehicle: saline) was 96 % of control and the T/C (dose: 500.0 mg/kg/injection, schedule: Q01DX Z (ip), vehicle: saline) was 94 % of control.
For `CCC1=C2C(=O)c3ccccc3C2=C(C)S(=O)(=O)O1`, the T/C (dose: 12.5 mg/kg/injection, schedule: Q01DX009 (ip), vehicle: saline with Tween-80) was 95 % of control, the T/C (dose: 25.0 mg/kg/injection, schedule: Q01DX009 (ip), vehicle: saline with Tween-80) was 108 % of control and the T/C [4] was 94 % of control and 111 % of control. The T/C [13] was 96 % of control and the T/C [14] was 96 % of control.
`COc1cc(N=Cc2ccc([N+](=O)[O-])cc2)c2ncccc2c1` was tested, and the T/C [2] was 101 % of control, the T/C [3] was 94 % of control and the T/C [7] was 92 % of control.
With `CC1(C)CC(O)CC(O)C1` (stereo unspecified) the T/C [1] was 104 % of control, the T/C (dose: 50.0 mg/kg/injection, schedule: Q01DX001 (ip), vehicle: saline) was 98 % of control and the T/C [2] was 101 % of control. The T/C [10] was 120 % of control, the T/C [3] was 106 % of control and the T/C [11] was 104 % of control. The T/C [7] was 98 % of control and the T/C [12] was 95 % of control.
In the case of `Cc1ccc(S(=O)(=O)Oc2ccc([N+](=O)[O-])cc2[N+](=O)[O-])cc1`, the T/C [1] is reported as 106 % of control, the T/C (dose: 50.0 mg/kg/injection, schedule: Q01DX009 (ip), vehicle: other) is reported as 100 % of control and the T/C [2] is reported as 114 % of control. For the same compound, the T/C (dose: 100.0 mg/kg/injection, schedule: Q01DX009 (ip), vehicle: other) was 96 % of control, the T/C (dose: 100.0 mg/kg/injection, schedule: Q04DX003 (ip), vehicle: Klucel (hydroxypropylcellulose) (HPC)) was 118 % of control and the T/C [3] was 106 % of control. The T/C (dose: 200.0 mg/kg/injection, schedule: Q04DX003 (ip), vehicle: Klucel (hydroxypropylcellulose) (HPC)) was 96 % of control and the T/C [7] was 106 % of control.
